Experiments:
[1] = tested on: anterograde transport of dynein-GFP in axons of primary hippocampal neurons; test: Slow axonal transport photobleaching assay (dynein-GFP midpoint displacement); assay type: cell-based, mouse; details: for mean velocity of dynein-GFP displacement / mean velocity of dynein-GFP: 3 cultures; for mean velocity of dynein-GFP: 500 ng peptide complexed with Chariot reagent, pre-treated 45–60 min; for mean velocity of dynein-GFP / kymographs with no or retrograde bias: n = 27 (control) and 29 (DIC1a) axons
Method: Primary hippocampal neurons from dynein-GFP mice were cultured for 8–10 DIV in 900 μm microfluidic devices in order to image single axons of known polarity. Post bleach motility was imaged for 60 s at 0.5 fps. A line scan was made for every frame of the time series, then movement of the photo-protected dynein-GFP pool was quantified by defining retrograde and anterograde edges at the half-maximal fluorescence value and tracking the displacement of the midpoint (Figure 6B). The peak of fluorescence intensity decreased with time as the dynein-GFP pool shifted in both anterograde and retrograde directions. However, the relative midpoint could be seen moving with a clear bias in the anterograde direction for several seconds (Figure 6C), particularly when overlaid onto the more standard kymograph representation of axonal transport (Figure 6D). […] By fitting a linear regression to each relative midpoint position over time, we observed anterograde velocities ranging from 0.01 to 0.1 μm/s. However, ∼80% of events were in the 0.01 to 0.05 μm/s range or approximately 1–5 mm a day. All net anterograde velocities were consistent with known speeds of slow axonal transport of cytoplasmic dynein in vivo ([Dillman et al., 1996a], [Dillman et al., 1996b]).
First, we tested whether the anterograde transport of dynein was microtubule dependent, using nocodazole (final concentration 30 μM) to depolymerize microtubules. Every viable isolated axon (see Experimental Procedures) within the microgrooves of the chamber was imaged following the bleaching protocol described above. The relative position of the midpoint for each kymograph was calculated (see Figure 7A for examples) and the mean midpoint displacement ± SEM was plotted for all axons (Figure 7B). […] To establish a mean velocity for dynein-GFP, we fitted each midpoint shift with a linear regression.
To directly test our hypothesis that interactions between dynein and kinesin-1 are required for the anterograde transport of dynein in the axon, we designed a peptide to block the interaction between DIC1 and KLC. We chose a 19-amino-acid-long sequence centered on the tryptophan in WD1 of DIC1a. […] Hippocampal neuronal cultures were pre-treated for 45–60 min with either DIC1a or control peptide, complexed with Chariot reagent for delivery across the plasma membrane. […] Consequently, the anterograde transport of dynein-GFP in the axon is critically dependent on the interaction between dynein subunit DIC1a and the KLCs of kinesin-1.
Live cell imaging of hippocampal cultures was performed in Hibernate E low fluorescence medium in a humidified temperature controlled (37°C) live cell chamber, on an Ultraview Vox (PerkinElmer) dual-imaging system mounted on an inverted Nikon Ti microscope with either 100× or 60× apochromat 1.49 NA oil-immersion objectives (Nikon), fully controlled by Volocity software (PerkinElmer). FRAP and slow axonal transport imaging used the spinning-disk confocal with an Ultraview Photokinesis unit for bleaching and a C9100-50 EM-CCD (Hamamatsu) camera. Near-TIRF imaging used the Nikon TIRF system with an EM-CCD C9100-13 camera (Hamamatsu). Image analysis was performed in FIJI ([Schindelin et al., 2012]) with follow up analysis in R (RStudio). Specifics for each experiment are listed in the Supplemental Experimental Procedures. […]
Slow axonal transport imaging and drug treatments
Axons were imaged with a 100X objective (Nikon). Acquisition speed was 1 frame every two seconds.
For Nocodazole and Taxol drug treatments, […] and 200 nM respective final concentrations were added
to each well of the microfluidic chamber in imaging media (Hibernate E Low Fluorescence media) 45-60
minutes prior to imaging, with hydrostatic pressure across the microgrooves of the microfluidic device to
ensure drugs reached the axons within the grooves.
Peptides were supplied by GenScript, and sequences are VCFYLLLQTWVFPYTHDLH and
LVQPLHFLTWDTCYFHYLV for Control and DIC1a-WD1 peptides respectively. […]

[2] = tested on: EB3 comets in the axon; test: EB3-mCherry comet density in axons; assay type: cell-based, mouse; details: taxol 200 nM, 45-60 min pre-treatment, mean; DMSO control 0.12; p = 0.008
Method: Figure S5. Related to Figure 7.
The slow anterograde transport of dynein in the axon is not dependent on dynamic microtubules.
(A) Taxol treatment reduces the density of EB3 comets in the axon. Example kymographs (left) and quantification (right) of
EB3-mCherry comet density in DMSO control and taxol treated axons. Pre-treatment with taxol (200 nM final concentration) for
45-60 minutes prior to imaging reduces the density of EB3 comets in the axon from 0.12 to 0.03 comets/µm/min. Heavy line =
mean, box = sem, grey dots = individual axons. Axons were imaged at 1 frame per second for 3 minutes using live cell spinning
disk confocal microscopy. […]
neurons showing relative positions of anterograde and retrograde intercept (blue) and the calculated midpoint displacement […]
spots are the velocities for each measured kymograph with colour indicating the overall direction of the midpoint displacement. […]
Taxol mean velocity 0.020±0.004 µm/s. p value calculated by a two-sample t-test. […]
Cells were imaged with 60X objective with near-TIRF illumination to eliminate excessive fluorescence […]
every ten minutes, with stage position controlled by Velocity software. For quantification, a threshold was […]
the movie and integrated density of each neurite was measured over time. […]
to each well of the microfluidic chamber in imaging media (Hibernate E Low Fluorescence media) 45-60 […]

[3] = tested on: KLC1TPR; test: Fluorescence polarization competition assay with TAMRA-labeled WD1pept; assay type: binding; details: 300 nM TAMRA-DICWD1 and 25 µM KLC TPR (approx. 70% saturation), increasing unlabeled peptide, Figure S3D; typically in triplicate
Method: Measurements were performed as previously described ([Pernigo et al., 2013]) with modifications as listed in Supplemental Experimental Procedures. […]
Log unlabelled peptide [nM]
Figure S3. Related to Figure 3.
(A-C) Isoforms of the mouse cytoplasmic dynein intermediate chain, based on data from (Kuta et al., 2010). The splice forms of DIC1 (A) and DIC2 (B) from the genes Dync1i1 and Dync1i2 respectively, relative to the longest isoform of each with key structural elements indicated: coiled coil required for NudE and p150 binding (McKenney et al., 2011; Nyarko et al., 2012); binding sites of the dynein light chains Tctex (Mok et al., 2001), LC8 (Lo et al., 2001) and Roadblock (Susalka et al., 2002); WD repeats 1-7 of the WD40 domain. Sequence alignments of all DIC isoforms centred on the two alternatively spliced regions: AS Loop 1 and AS Loop 2 (C). […]
(D) In a fluorescence polarization competition assay, TAMRA-labeled WD1pept bound to KLC1TPR is competed off with both unlabeled SKIPWD (with a single tryptophan motif) or a longer peptide encompassing both motifs (SKIPWDWE). […]
Fluorescence polarization measurements […]
[…] All fluorescence polarization (FP) measurements were carried out on a BMG Labtech PolarStar Omega plate reader at 20 °C by incubating 300 nM TAMRA-labeled peptides with His6-tagged KLC2TPR at increasing concentrations in 25 mM Hepes pH 7.5, 150 mM NaCl, 5 mM β-mercaptoethanol. […]

[4] = 500 ng peptide with Chariot reagent, mean ± SEM
[5] = 500 ng peptide with Chariot reagent

COC(=O)Nc1nc2ccc(C(=O)c3cccs3)cc2[nH]1 [Nocodazole, nocodazole]
net motility / anterograde bias ([1]; nocodazole, final concentration 30 μM, Figures 7A and 7B): abrogated the anterograde bias in transport seen in DMSO control neurons, with no net motility in either the anterograde or retrograde direction | mean velocity of dynein-GFP displacement ([1]; nocodazole, final concentration 30 μM, linear regression, mean ± SEM, n = 22 axons, DMSO control 0.018 ± 0.005 μm/s): –0.001 ± 0.005 μm/s

LVQPLHFLTWDTCYFHYLV [DIC1a peptide]
mean velocity of dynein-GFP ([1]; all kymographs, mean ± SEM): 0.012 ± 0.005 μm/s | anterograde bias of dynein-GFP transport ([1]; 500 ng peptide with Chariot reagent, Figure 7E): substantial reduction in the anterograde bias of dynein-GFP transport | reduction of mean dynein-GFP velocity versus control peptide ([1]; 500 ng peptide with Chariot reagent, all kymographs): over 50% | mean velocity of anterograde only kymographs [1, 4]: 0.029 ± 0.003 μm/s | kymographs with no or retrograde bias [1, 5]: 38% | kymographs showing anterograde velocities over 0.05 μm/s ([1]; 500 ng peptide with Chariot reagent, n = 29 axons): complete loss

CC(=O)O[C@H]1C(=O)[C@@]2(C)[C@H]([C@H](OC(=O)c3ccccc3)[C@]3(O)C[C@H](OC(=O)[C@H](O)[C@@H](NC(=O)c4ccccc4)c4ccccc4)C(C)=C1C3(C)C)[C@]1(OC(C)=O)CO[C@@H]1C[C@@H]2O [Taxol, taxol]
density of EB3 comets in the axon [2]: 0.03 comets/µm/min | mean velocity of dynein-GFP displacement ([1]; taxol 200 nM, 45-60 min pre-treatment, mean ± sem, n = 39 axons, DMSO 0.023±0.005 µm/s, p = 0.6 two-sample t-test): 0.020±0.004 µm/s | inhibition of anterograde bias of dynein transport ([1]; taxol 200 nM, Figures S5B–S5D): no inhibition in the anterograde bias of dynein transport

STNLEWDDSAI [SKIPWD, unlabeled SKIP peptide with a single tryptophan motif]
competition of WD1pept [3]: compete off WD1pept in a concentration dependent manner

VCFYLLLQTWVFPYTHDLH [control peptide]
mean velocity of dynein-GFP ([1]; all kymographs, mean ± SEM): 0.029 ± 0.005 μm/s | mean velocity of anterograde only kymographs [1, 4]: 0.036 ± 0.004 μm/s | kymographs with no or retrograde bias [1, 5]: 15% | kymographs with anterograde velocity over 0.05 μm/s ([1]; 500 ng peptide with Chariot reagent, n = 27 axons (control)): 22%

STNLEWDDSAIAPSSEDYDFGDVFPAVPSTPR VPSTDWEDGDL [SKIPWDWE, longer SKIP peptide encompassing both motifs]
competition of WD1pept [3]: longer and higher affinity SKIPWDWE peptide doing so more efficiently

— paper PMC4893161, “The Dynamic Localization of Cytoplasmic Dynein in Neurons Is Driven by Kinesin-1” (Neuron, 2016)
